Read-outs that look alike come from different tables or passages of the source.

Holding throughout (assay type): physicochemical
A short description of data set [1]: Determination of moisture contents with KF moisture meter at different time points (hygroscopicity). Particulars: for moisture content of the complex compared with the acid, the sodium salt and their mixture: summary of Tables 2A-2C; for moisture content (%): temperature 23° C., humidity 92.5%; for hygroscopicity of the solid acid: easy to deliquesce. The text has this: For R-3-hydroxybutyric acid, sodium R-3-hydroxybutyrate, Mixture of R-3-hydroxybutyric acid and sodium R-3-hydroxybutyrate, as well as R-3-hydroxybutyric acid·sodium R-3-hydroxybutyrate complex of Examples 1-6, under a certain condition, KF moisture meter was used to determine the moisture contents at different time points.
For 3-hydroxybutyric acid, sodium 3-hydroxybutyrate, mixture of 3-hydroxybutyric acid and sodium 3-hydroxybutyrate, as well as 3-hydroxybutyric acid·sodium 3-hydroxybutyrate complex of Examples 7-9, under a certain condition, KF moisture meter was used to determine the moisture contents at different time points.
For S-3-hydroxybutyric acid, sodium S-3-hydroxybutyrate, mixture of S-3-hydroxybutyric acid and sodium S-3-hydroxybutyrate, as well as S-3-hydroxybutyric acid·sodium S-3-hydroxybutyrate complex of Examples 10-12, under a certain condition, KF moisture meter was used to determine the moisture contents at different time points.

Data set [2] in a line: Stability of the solids at different temperatures. As to the method: For R-3-hydroxybutyric acid, sodium R-3-hydroxybutyrate, mixture of R-3-hydroxybutyric acid and sodium R-3-hydroxybutyrate, as well as R-3-hydroxybutyric acid·sodium R-3-hydroxybutyrate complex of Examples 1-6, the stability was measured at 60° C., 70° C. and 80° C., and the experimental results are shown in Table 3A.
For 3-hydroxybutyric acid, sodium 3-hydroxybutyrate, mixture of 3-hydroxybutyric acid and sodium 3-hydroxybutyrate, as well as 3-hydroxybutyric acid·sodium 3-hydroxybutyrate complex of Examples 7-9, the stability was measured at 60° C., 70° C. and 80° C., and the experimental results are shown in Table 3B.
For S-3-hydroxybutyric acid, sodium S-3-hydroxybutyrate, mixture of S-3-hydroxybutyric acid and sodium S-3-hydroxybutyrate, as well as S-3-hydroxybutyric acid·sodium S-3-hydroxybutyrate complex of Examples 10-12, the stability was measured at 60° C., 70° C. and 80° C., and the experimental results are shown in Table 3C.

Data set [3] is described as follows: Stability of the solids at different temperatures. This is another data set of the same source.

Turning to `CC(O)CC(=O)O` (stereo not shown) [3-hydroxybutyric acid • sodium 3-hydroxybutyrate complex] [3-hydroxybutyric acid·sodium 3-hydroxybutyrate], the “hygroscopicity of the complex compared with the acid, the sodium salt and their mixture” value in data set [1] is recorded as “obviously superior”. For the same compound, in data set [1], the “moisture content of the complex compared with the acid, the sodium salt and their mixture” value is “significantly lower”. Besides, the “moisture content (%)” value was determined as 0.61% in data set [1] (30 min); 1.18% in data set [1] (1 h); 2.05% in data set [1] (2 h); 3.38% in data set [1] (4 h); 4.99% in data set [1] (6 h); 5.52% in data set [1] (7 h). For the same compound, the “moisture content (%)” value in data set [1] (11 h) is recorded as 8.73%; in data set [1] (22 h) it was 17.63%. The Stability entry in data set [2] was “unchanged”. Further, in data set [2], the “stability of the complex” value is reported as “very high”.
For `CC(O)CC(=O)O` (stereo not shown) [3-hydroxybutyric acid], the “hygroscopicity of the solid acid” value in data set [1] is on record as “strong hygroscopicity”. Moreover, the “moisture content (%)” value turned out to be 1.32% in data set [1] (30 min); 2.37% in data set [1] (1 h); 4.15% in data set [1] (2 h); 6.59% in data set [1] (4 h); 9.68% in data set [1] (6 h); 10.71% in data set [1] (7 h). For the same compound, the results for the “moisture content (%)” value in data set [1] (11 h) and in data set [1] (22 h) were 17.33% and 33.51%, respectively.
Regarding `C[C@@H](O)CC(=O)O` [R-3-hydroxybutyric acid • sodium R-3-hydroxybutyrate complex] [R-3-hydroxybutyric acid·sodium R-3-hydroxybutyrate], the “hygroscopicity of the complex compared with the acid, the sodium salt and their mixture” value in data set [1] is given as “obviously superior”. In addition, the “moisture content of the complex compared with the acid, the sodium salt and their mixture” value in data set [1] is “significantly lower”. Besides, the “moisture content (%)” value in data set [1] (30 min) worked out at 0.54%; in data set [1] (1 h) it was 1.02%; in data set [1] (2 h), 1.96%; in data set [1] (4 h), 3.26%; in data set [1] (6 h) it was 4.89%; in data set [1] (7 h), 5.39%. Also, the “moisture content (%)” value came out at 8.65% in data set [1] (11 h) and 17.45% in data set [1] (22 h). In addition, the Stability result in data set [2] is recorded as “unchanged”. Also, the “stability of the complex” value in data set [2] is “very high”.
As to `C[C@@H](O)CC(=O)O` [R-3-hydroxybutyric acid], the “hygroscopicity of the solid acid” value in data set [1] is listed as “strong hygroscopicity”. The “moisture content (%)” value was 1.13% in data set [1] (30 min); 2.25% in data set [1] (1 h); 3.96% in data set [1] (2 h); 6.46% in data set [1] (4 h); 9.52% in data set [1] (6 h); 10.56% in data set [1] (7 h). For the same compound, the “moisture content (%)” value in data set [1] (11 h) is listed as 17.22%; in data set [1] (22 h) it was 33.34%.
Turning to `C[C@H](O)CC(=O)O` [S-3-hydroxybutyric acid], the “hygroscopicity of the solid acid” value in data set [1] is “strong hygroscopicity”. Also, the “moisture content (%)” value in data set [1] (30 min) was 1.23%; in data set [1] (1 h), 2.28%; in data set [1] (2 h), 4.05%; in data set [1] (4 h), 6.32%; in data set [1] (6 h) it was 9.53%; in data set [1] (7 h) it was 10.62%. Moreover, the “moisture content (%)” value is 17.08% in data set [1] (11 h) and 32.95% in data set [1] (22 h). Further, the Stability result is listed as “melted” in data set [2] (60° C.); “melted” in data set [2] (70° C.); “melted” in data set [2] (80° C.); “unchanged” in data set [3] (30° C.); “melted” in data set [3] (50° C.).
As for `C[C@H](O)CC(=O)O` [S-3-hydroxybutyric acid·sodium S-3-hydroxybutyrate], the “hygroscopicity of the complex compared with the acid, the sodium salt and their mixture” value in data set [1] is listed as “obviously superior”. The “moisture content of the complex compared with the acid, the sodium salt and their mixture” value in data set [1] is “significantly lower”. The “moisture content (%)” value in data set [1] (30 min) turned out to be 0.71%; in data set [1] (1 h) it was 1.38%; in data set [1] (2 h) it was 1.85%; in data set [1] (4 h), 3.28%; in data set [1] (6 h), 4.79%; in data set [1] (7 h), 5.32%. Further, the entries for the “moisture content (%)” value in data set [1] (11 h) and in data set [1] (22 h) were 8.43% and 16.93%, respectively. Further, the Stability entry in data set [2] is “unchanged”. The “stability of the complex” value in data set [2] is recorded as “very high”.
As for `CC(O)CC(=O)[O-].[Na+]` (stereo not shown) [Sodium 3-hydroxybutyrate, sodium 3-hydroxybutyrate], the “moisture content (%)” value in data set [1] (30 min) was found to be 1.15%; in data set [1] (1 h), 2.19%; in data set [1] (2 h), 3.62%; in data set [1] (4 h), 5.35%; in data set [1] (6 h), 7.54%; in data set [1] (7 h), 8.35%. The “moisture content (%)” value in data set [1] (11 h) is 12.86%; in data set [1] (22 h), 24.95%. The Stability entry in data set [2] was “unchanged”.
Turning to `C[C@@H](O)CC(=O)[O-].[Na+]` [Sodium R-3-hydroxybutyrate, sodium R-3-hydroxybutyrate], the “moisture content (%)” value was determined as 1.04% in data set [1] (30 min); 2.01% in data set [1] (1 h); 3.39% in data set [1] (2 h); 5.23% in data set [1] (4 h); 7.35% in data set [1] (6 h); 8.04% in data set [1] (7 h). Also, the “moisture content (%)” value in data set [1] (11 h) was determined as 12.68%; in data set [1] (22 h) it was 24.68%. In data set [2], the Stability entry is “unchanged”.
As to `C[C@H](O)CC(=O)[O-].[Na+]` [Sodium S-3-hydroxybutyrate, sodium S-3-hydroxybutyrate], the “moisture content (%)” value in data set [1] (30 min) turned out to be 1.09%; in data set [1] (1 h), 2.07%; in data set [1] (2 h) it was 3.49%; in data set [1] (4 h), 5.32%; in data set [1] (6 h), 7.46%; in data set [1] (7 h) it was 8.15%. The “moisture content (%)” value in data set [1] (11 h) was 12.73%; in data set [1] (22 h) it was 24.53%. The Stability result in data set [2] (60° C.), in data set [2] (70° C.), in data set [2] (80° C.), in data set [3] (30° C.), in data set [3] (40° C.) and in data set [3] (50° C.) was “unchanged” each time.

The record behind these values is patent US20250221948A1, “Complex of 3-hydroxybutyric acid and sodium 3-hydroxybutyrate and preparation method thereof” (priority 2022, published 2025).
